ChEMBL document CHEMBL5055665, “Discovery of the Triazolo[1,5-a]Pyrimidine-Based Derivative WS-898 as a Highly Efficacious and Orally Bioavailable ABCB1 Inhibitor Capable of Overcoming Multidrug Resistance” (J Med Chem, 2021)
Activity calls are given as the source filed them. The calls are words filed in the database; no cut-off is given here.

Columns and labels:
[1] = test system: SW-620; assay: Reversal of resistance to paclitaxel-induced cytotoxicity in human SW-620 cells assessed as reduction in paclitaxel IC50 at 2 uM preincubated for 4 hrs followed by paclitaxel addition and measured after 72 hrs by MTT assay (reference value: 7.69 +/- 2.78 nM); type: functional, cell-based
[2] = test system: SW-620; assay: Reversal of resistance to paclitaxel-induced cytotoxicity in human SW-620 cells assessed as reversal fold at 1 uM preincubated for 4 hrs followed by paclitaxel addition and measured after 72 hrs by MTT assay relative to paclitaxel; type: functional; conditions: time 76 hrs
[3] = test system: SW-620; assay: Reversal of resistance to paclitaxel-induced cytotoxicity in human SW-620 cells assessed as reversal fold at 2 uM preincubated for 4 hrs followed by paclitaxel addition and measured after 72 hrs by MTT assay relative to paclitaxel; type: functional; conditions: time 76 hrs
[4] = test system: KB 3-1; assay: Reversal of resistance to paclitaxel-induced cytotoxicity in human KB 3-1 cells assessed as reduction in paclitaxel IC50 at 2 uM preincubated for 4 hrs followed by paclitaxel addition and measured after 72 hrs by MTT assay (reference value: 4.54 +/- 1.59 nM); type: functional, cell-based
[5] = test system: KB 3-1; assay: Reversal of resistance to paclitaxel-induced cytotoxicity in human KB 3-1 cells assessed as reversal fold at 2 uM preincubated for 4 hrs followed by paclitaxel addition and measured after 72 hrs by MTT assay relative to paclitaxel; type: functional; conditions: time 76 hrs
[6] = test system: KB-C2; assay: Reversal of resistance to paclitaxel-induced cytotoxicity in human KB-C2 cells assessed as reduction in paclitaxel IC50 at 1 uM preincubated for 4 hrs followed by paclitaxel addition and measured after 72 hrs by MTT assay (reference value: 1886.37 +/- 243.05 nM); type: functional, cell-based
[7] = test system: KB-C2; assay: Reversal of resistance to paclitaxel-induced cytotoxicity in human KB-C2 cells assessed as reduction in paclitaxel IC50 at 2 uM preincubated for 4 hrs followed by paclitaxel addition and measured after 72 hrs by MTT assay (reference value: 1886.37 +/- 243.05 nM); type: functional, cell-based
[8] = test system: KB-C2; assay: Reversal of resistance to paclitaxel-induced cytotoxicity in human KB-C2 cells assessed as reversal fold at 2 uM preincubated for 4 hrs followed by paclitaxel addition and measured after 72 hrs by MTT assay relative to paclitaxel; type: functional; conditions: time 76 hrs
[9] = test system: HEK293; assay: Reversal of resistance to paclitaxel-induced cytotoxicity in human HEK293/pcDNA3.1 cells assessed as reduction in paclitaxel IC50 at 1 uM preincubated for 4 hrs followed by paclitaxel addition and measured after 72 hrs by MTT assay (reference value: 1.93 +/- 0.06 nM); type: functional, cell-based
[10] = test system: HEK293; assay: Reversal of resistance to paclitaxel-induced cytotoxicity in human HEK293/pcDNA3.1 cells assessed as reduction in paclitaxel IC50 at 2 uM preincubated for 4 hrs followed by paclitaxel addition and measured after 72 hrs by MTT assay (reference value: 1.93 +/- 0.06 nM); type: functional, cell-based
[11] = test system: HEK293; assay: Reversal of resistance to paclitaxel-induced cytotoxicity in human HEK293/ABCB1 cells assessed as reduction in paclitaxel IC50 at 1 uM preincubated for 4 hrs followed by paclitaxel addition and measured after 72 hrs by MTT assay (reference value: 91.40 +/- 23.32 nM); type: functional, cell-based
[12] = test system: HEK293; assay: Reversal of resistance to paclitaxel-induced cytotoxicity in human HEK293/ABCB1 cells assessed as reduction in paclitaxel IC50 at 2 uM preincubated for 4 hrs followed by paclitaxel addition and measured after 72 hrs by MTT assay (reference value: 91.40 +/- 23.32 nM); type: functional, cell-based
[13] = test system: HEK293; assay: Reversal of resistance to paclitaxel-induced cytotoxicity in human HEK293/ABCB1 cells assessed as reversal fold at 1 uM preincubated for 4 hrs followed by paclitaxel addition and measured after 72 hrs by MTT assay relative to paclitaxel; type: functional; conditions: time 76 hrs
[14] = test system: HEK293; assay: Reversal of resistance to paclitaxel-induced cytotoxicity in human HEK293/ABCB1 cells assessed as reversal fold at 2 uM preincubated for 4 hrs followed by paclitaxel addition and measured after 72 hrs by MTT assay relative to paclitaxel; type: functional; conditions: time 76 hrs
[15] = test system: SW-620; assay: Effect on ABCB1 expression in human SW-620/AD300 cells at 2 uM measured upto 96 hrs by Western blot analysis; type: functional, cell-based
[16] = test system: SW-620; assay: Effect on subcellular localization of ABCB1 in human SW-620/AD300 cells at 2 uM measured after 72 hrs by Hoechst 33258 staining based immunofluorescence assay; type: functional, cell-based
[17] = biological target: ATP-dependent translocase ABCB1 (Homo sapiens, UniProt P08183); assay: Binding affinity to ABCB1 in human SW-620/AD300 cells assessed as thermal stabilization of protein at 2 uM incubated for 76 hrs by CETSA-based Western blot analysis; type: cell-based; conditions: sw-620, 76 h
[18] = test system: SW-620; assay: Antitumor activity against human SW-620/AD300 cells xenografted in BALB/c nude mouse assessed as tumor growth inhibition at 30 mg/kg/day, ig administered for 21 days; type: functional; set-up: scale not given: the % may be the effect or the level left; conditions: time 21 day
[19] = test system: SW-620; assay: Antitumor activity against human SW-620/AD300 cells xenografted in BALB/c nude mouse assessed as reduction in tumor weight at 30 mg/kg/day, ig administered for 21 days in presence of paclitaxel; type: functional, organism-based; conditions: time 21.0 day
[20] = test system: Mus musculus; assay: Toxicity in BALB/c mouse xenografted with human SW-620/AD300 cells assessed as change in body weight at 30 mg/kg/day, ig administered 21 days in presence of paclitaxel; type: organism-based; conditions: in vivo, po, 504 h, time 21 day
[21] = test system: SW-620; assay: Antitumor activity against human SW-620/AD300 cells xenografted in BALB/c nude mouse assessed as increase in cells with nuclear pyknosis at 30 mg/kg/day, ig administered for 21 days in presence of paclitaxel by TUNEL staining based fluorescence microscopy; type: functional, organism-based; conditions: time 21.0 day
[22] = test system: SW-620; assay: Antitumor activity against human SW-620/AD300 cells xenografted in BALB/c nude mouse assessed as increase in tumor cell apoptosis at 30 mg/kg/day, ig administered for 21 days in presence of paclitaxel by TUNEL staining based fluorescence microscopy; type: functional, organism-based; conditions: time 21.0 day
[23] = test system: Mus musculus; assay: Hepatotoxicity in BALB/c mouse xenografted with human SW-620/AD300 cells at 30 mg/kg/day, ig administered for 21 days in presence of paclitaxel; type: toxicity, organism-based; conditions: in vivo, po, 504 h, time 21 day
[24] = Volume of distribution at steady state in Sprague-Dawley rat at 10 mg/kg, iv measured up to 24 hrs by LC-MS/MS analysis; type: ADME, organism-based; conditions: in vivo, read-out: Vdss
[25] = Half life in Sprague-Dawley rat at 10 mg/kg, iv measured up to 24 hrs by LC-MS/MS analysis; type: ADME, organism-based; conditions: in vivo
[26] = AUClast in Sprague-Dawley rat at 10 mg/kg, iv measured up to 24 hrs by LC-MS/MS analysis; type: ADME, organism-based; set-up: dose 10 mg/kg, time < 24 hrs, route iv; conditions: in vivo
[27] = AUCinfinity in Sprague-Dawley rat at 10 mg/kg, iv measured up to 24 hrs by LC-MS/MS analysis; type: ADME, organism-based; set-up: dose 10 mg/kg, time < 24 hrs, route iv; conditions: in vivo
[28] = MRTlast in Sprague-Dawley rat at 10 mg/kg, iv measured up to 24 hrs by LC-MS/MS analysis; type: ADME, organism-based; conditions: in vivo
[29] = MRTinfinity in Sprague-Dawley rat at 10 mg/kg, iv measured up to 24 hrs by LC-MS/MS analysis; type: ADME, organism-based; conditions: in vivo

Sequence of ATP-dependent translocase ABCB1 (P08183 whole entry): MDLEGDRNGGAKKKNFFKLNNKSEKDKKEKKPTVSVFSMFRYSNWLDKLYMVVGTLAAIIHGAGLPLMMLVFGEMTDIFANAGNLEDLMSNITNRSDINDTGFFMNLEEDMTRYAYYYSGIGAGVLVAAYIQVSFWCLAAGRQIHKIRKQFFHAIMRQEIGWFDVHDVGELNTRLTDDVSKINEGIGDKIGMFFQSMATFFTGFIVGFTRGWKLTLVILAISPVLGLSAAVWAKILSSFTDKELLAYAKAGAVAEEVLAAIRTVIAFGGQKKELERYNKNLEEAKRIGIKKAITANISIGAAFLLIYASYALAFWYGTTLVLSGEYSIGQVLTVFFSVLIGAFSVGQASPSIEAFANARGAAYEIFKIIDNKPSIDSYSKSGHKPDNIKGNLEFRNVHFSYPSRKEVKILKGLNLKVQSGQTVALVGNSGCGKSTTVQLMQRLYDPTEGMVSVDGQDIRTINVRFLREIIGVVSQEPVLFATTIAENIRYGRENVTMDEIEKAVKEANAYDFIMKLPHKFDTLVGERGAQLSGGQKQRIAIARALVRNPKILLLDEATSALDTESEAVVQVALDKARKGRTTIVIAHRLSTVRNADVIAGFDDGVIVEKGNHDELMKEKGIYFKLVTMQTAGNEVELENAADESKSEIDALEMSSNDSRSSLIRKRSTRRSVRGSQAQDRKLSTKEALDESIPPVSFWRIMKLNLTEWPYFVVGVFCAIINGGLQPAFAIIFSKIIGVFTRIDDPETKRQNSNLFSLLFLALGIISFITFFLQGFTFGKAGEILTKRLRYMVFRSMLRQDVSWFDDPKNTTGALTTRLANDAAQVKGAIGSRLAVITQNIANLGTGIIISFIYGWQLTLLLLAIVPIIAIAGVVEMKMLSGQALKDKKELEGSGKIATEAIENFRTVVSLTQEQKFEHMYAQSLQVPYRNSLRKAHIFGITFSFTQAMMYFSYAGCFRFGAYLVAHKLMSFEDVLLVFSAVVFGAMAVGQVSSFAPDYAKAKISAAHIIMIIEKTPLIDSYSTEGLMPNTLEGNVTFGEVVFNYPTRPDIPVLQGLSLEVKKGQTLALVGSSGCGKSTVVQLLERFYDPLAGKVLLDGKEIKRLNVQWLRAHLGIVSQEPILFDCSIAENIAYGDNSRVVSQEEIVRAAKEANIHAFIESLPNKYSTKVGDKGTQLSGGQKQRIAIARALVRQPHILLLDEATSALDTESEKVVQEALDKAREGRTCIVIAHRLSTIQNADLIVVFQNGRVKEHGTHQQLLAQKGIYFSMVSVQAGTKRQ

**Q.** Which IC50 [1] does the source give for `Cc1cc(Nc2ccc(C(=O)/C=C/c3ccc4ccccc4c3)cc2)n2nc(SCc3nc4ccccc4[nH]3)nc2n1` here?
**A.** 6.98 nM

**Q.** What about the “fold change (FC)” value [2] of the same compound?
**A.** 1.06

**Q.** What about the “fold change (FC)” value [3] of the same compound?
**A.** 1.1

**Q.** And the IC50 [4]?
**A.** 3.53 nM

**Q.** And the “fold change (FC)” value [5]?
**A.** 1.29

**Q.** What about the IC50 [6] of the same compound?
**A.** 15.9 nM

**Q.** And the IC50 [7]?
**A.** 3.67 nM

**Q.** And the “fold change (FC)” value [8]?
**A.** 513.99

**Q.** What about the IC50 [9] of the same compound?
**A.** 1.69 nM

**Q.** What about the IC50 [10] of the same compound?
**A.** 1.31 nM

**Q.** And the IC50 [11]?
**A.** 9.21 nM

**Q.** What about the IC50 [12] of the same compound?
**A.** 3.68 nM

**Q.** What about the “fold change (FC)” value [13] of the same compound?
**A.** 9.92

**Q.** And the “fold change (FC)” value [14]?
**A.** 24.84

**Q.** What about the Activity [15] of the same compound?
**A.** inactive

**Q.** What about the Activity [16] of the same compound?
**A.** Active

**Q.** And the Activity [17]?
**A.** Active

**Q.** What about the Activity [18] of the same compound?
**A.** 30%

**Q.** What about the Activity [19] of the same compound?
**A.** Active

**Q.** What about the Activity [20] of the same compound?
**A.** Non-Toxic

**Q.** And the Activity [21]?
**A.** Active

**Q.** What about the Activity [22] of the same compound?
**A.** Active

**Q.** What about the Activity [23] of the same compound?
**A.** Non-Toxic

**Q.** And the Vd [24]?
**A.** 0.114 L/kg

**Q.** What about the half-life [25] of the same compound?
**A.** 85.8 min

**Q.** What about the AUC(0-t) at 24 h [26] of the same compound?
**A.** 9440 ng·h/mL

**Q.** And the AUC(0-inf) [27]?
**A.** 9450 ng·h/mL

**Q.** And the MRT last at 24 h [28]?
**A.** 5.76 min

**Q.** And the MRT inf [29]?
**A.** 6.42 min
